Assay results taken from patent US20230042729A1, “PEPTIDE CONSTRUCTS AND COMPOSITIONS” (DIET4LIFE APS, priority 2019, published 2023).
No end group written: not given here.

Columns and labels:
murine intestinal cells = murine intestinal cells (Mus musculus, UniProt O88319); experiment: Ca2+ flux / calcium response assay (cell signaling activity); assay type: cell-based
Protocol: Ca^2+ Flux Assay/Calcium Response Assay:
Elevation of intracellular calcium level was measured using the fluorescent calcium chelating dye Fluo-4 AM (ThermoFischer Scientific, Denmark). Briefly, cells were grown as a monolayer in 96-well tissue culture plates (Sarstedt, Germany) to near confluence in appropriate growth medium as described in the cell culture section.
All test compounds were dissolved in water, and then diluted in 1×HBSS containing 25 mM HEPES (pH 7.4), 1% BSA and 2% ink. […]

[1] = Stability of peptides in intestine homogenate, remaining activity read in intestinal cells; assay type: in vitro ADME, mice; conditions: for Stability in intestine (activity remaining): octapeptides, % activity left after 30 min incubation in intestine homogenate at 37° C.
Protocol: Small intestines from 20 Swiss-Webster males were homogenized in 350 ml Dulbecco's phosphate-buffered saline (PBS) (pH 7.4) (ThermoFischer Scientific, Denmark) with a IKA® basic 18 Ultra-Turrax tissue homogenizer set a speed 5 followed by filtration using 100 μm nylon mesh filter. Protein concentration was 6 mg/ml using the bicinconinic acid assay (ThermoFischer Scientific, Denmark) and bovine serum albumin as standard. The intestine homogenate was diluted 10 times in HBSS containing 25 mM HEPES (pH 7.4), and further diluted 30×, 90×, 270×, 810× or 2430× before incubation with peptides. All solutions were prewarmed to 37° C. before mixing with peptide solutions.
Peptides were incubated at 10^−5 M with dilutions of small intestine homogenate at 37° C. for 90 minutes with shaking. Reactions were stopped by addition of 1 M phosphoric acid (final 0.4 M, pH˜1.2). Each peptide incubation mix was then neutralized with NaOH to pH 7.2-7.4 and immediately tested for activity in intestinal cells. Control for zero degradation, i.e. addition of 1 M phosphoric acid prior to addition of intestine homogenate, was included for each peptide. […]
(§1) The 20 hexapeptides with systematic N-terminal substitutions (X-KPYIL) (Schafer-N, Denmark) and NT (8-13) was incubated at 10^−6 M in either FBS for 10 minutes or with 270× diluted intestinal homogenate for 30 minutes at 37° C. with shaking. The degradation was stopped with 1 M phosphoric acid. Peptide solutions were neutralized with NaOH (pH 7.2-7.4), diluted and immediately tested for bioactivity using murine intestinal cells. Determination of EC50 for stimulation of cells allowed calculation of recovered peptide.

[2] = Stability of peptides in serum, remaining activity read in intestinal cells; assay type: in vitro ADME, Bovine; conditions: for Stability in serum (activity remaining): octapeptides, fraction of peptide activity left after 10 min of incubation in serum at 37° C. compared with undigested sample
Protocol: All peptides were incubated at 10^−5 M with Fetal Bovine Serum (FBS; final concentration of 66.7%) (Sigma Aldrich, Denmark) at 37° C. for 3 hours. The peptide degradation was terminated using 1 M phosphoric acid (final 0.4 M, pH˜1.2) and neutralized to pH 7.2-7.4 with NaOH before testing activity in intestinal cells. As for small intestine homogenates, a zero degradation control was included for each peptide.
DC7-2, NT, DKPYIL and NT-(8-13) (final concentration of 10^−6 M) were incubated either with FBS or with 270× diluted intestinal homogenate at 37° C. for various time points with shaking. Degradation was stopped with 1 M phosphoric acid and the samples were subsequently neutralized and immediately tested with intestinal cells as described above. Control for zero degradation was included for each peptide as above.
as §1

Chain of murine intestinal cells (O88319 whole entry): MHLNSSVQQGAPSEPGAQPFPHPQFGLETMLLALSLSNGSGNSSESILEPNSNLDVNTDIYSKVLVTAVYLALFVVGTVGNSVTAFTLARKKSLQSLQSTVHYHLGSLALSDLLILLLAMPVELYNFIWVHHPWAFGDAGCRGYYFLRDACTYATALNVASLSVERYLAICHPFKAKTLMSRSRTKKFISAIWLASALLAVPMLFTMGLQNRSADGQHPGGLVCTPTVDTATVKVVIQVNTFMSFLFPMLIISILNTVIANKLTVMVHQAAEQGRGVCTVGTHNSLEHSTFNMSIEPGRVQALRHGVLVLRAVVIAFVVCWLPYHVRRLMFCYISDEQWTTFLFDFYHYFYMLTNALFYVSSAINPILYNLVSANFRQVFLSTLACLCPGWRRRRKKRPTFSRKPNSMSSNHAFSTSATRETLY

CC[C@H](C)[C@H](NC(=O)[C@H](Cc1ccc(O)cc1)NC(=O)[C@@H]1CCCN1C(=O)[C@@H](N)CCCNC(=N)N)C(=O)N[C@@H](CC(C)C)C(=O)O [Peptide 36010, R PYIL]
EC50 (murine intestinal cells): 1.18 nM

ADKPYIL [Peptide 36016, A DKPYIL]
EC50 (murine intestinal cells): 3.52 nM

APYIL [Peptide 35996, A PYIL]
EC50 (murine intestinal cells): 11.8 nM

CDKPYIL [Peptide 36017, C DKPYIL]
EC50 (murine intestinal cells): 7.72 nM

CPYIL [Peptide 35997, C PYIL]
EC50 (murine intestinal cells): 69.9 nM

CSDKPYIL [Peptide 36037, C SDKPYIL]
EC50 (murine intestinal cells): 5.44 nM
Stability in intestine (activity remaining) [1]: 14.0%
Stability in serum (activity remaining) [2]: 0.0963

DDKPYIL [Peptide 36018, D DKPYIL]
EC50 (murine intestinal cells): 10.5 nM

DKPYIL [Peptide 35978, D KPYIL]
stability in intestine homogenate compared to neurotensin (8-13) RRPYIL [1]: 100-1000 ×
stability in serum compared to neurotensin (8-13) RRPYIL [2]: around 100 times

DPYIL [Peptide 35998, D PYIL]
EC50 (murine intestinal cells): 158 nM

DSDKPYIL [Peptide 36038, D SDKPYIL]
EC50 (murine intestinal cells): 6.15 nM
Stability in intestine (activity remaining) [1]: 29.9%
Stability in serum (activity remaining) [2]: 0.0947

EDKPYIL [Peptide 36019, E DKPYIL]
EC50 (murine intestinal cells): 3.96 nM

EPYIL [Peptide 35999, E PYIL]
EC50 (murine intestinal cells): 102 nM

ESDKPYIL [Peptide 36039, E SDKPYIL]
EC50 (murine intestinal cells): 4.82 nM
Stability in intestine (activity remaining) [1]: 23.0%
Stability in serum (activity remaining) [2]: 0.0964

FDKPYIL [Peptide 36020, F DKPYIL]
EC50 (murine intestinal cells): 9.52 nM

FPYIL [Peptide 36000, F PYIL]
EC50 (murine intestinal cells): 19.5 nM

FSDKPYIL [Peptide 36040, F SDKPYIL]
EC50 (murine intestinal cells): 3.85 nM
Stability in intestine (activity remaining) [1]: 3.4%
Stability in serum (activity remaining) [2]: 0.0944

GDKPYIL [Peptide 36021, G DKPYIL]
EC50 (murine intestinal cells): 2.91 nM

GPYIL [Peptide 36001, G PYIL]
EC50 (murine intestinal cells): 17.4 nM

GSDKPYIL [Peptide 36041, G SDKPYIL]
EC50 (murine intestinal cells): 4.07 nM
Stability in intestine (activity remaining) [1]: 10.3%
Stability in serum (activity remaining) [2]: 0.0912

HDKPYIL [Peptide 36022, H DKPYIL]
EC50 (murine intestinal cells): 2.65 nM

HPYIL [Peptide 36002, H PYIL]
EC50 (murine intestinal cells): 35.6 nM

HSDKPYIL [Peptide 36042, H SDKPYIL]
EC50 (murine intestinal cells): 3.63 nM
Stability in intestine (activity remaining) [1]: 6.4%
Stability in serum (activity remaining) [2]: 0.0980

IDKPYIL [Peptide 36023, I DKPYIL]
EC50 (murine intestinal cells): 4.77 nM

IKPYIL [Peptide 35983, I KPYIL]
EC50 (murine intestinal cells): 0.24 nM

IPYIL [Peptide 36003, 1 PYIL]
EC50 (murine intestinal cells): 23.8 nM

ISDKPYIL [Peptide 36043, I SDKPYIL]
EC50 (murine intestinal cells): 6.87 nM
Stability in intestine (activity remaining) [1]: 6.0%
Stability in serum (activity remaining) [2]: 0.0956

KDKPYIL [Peptide 36024, K DKPYIL]
EC50 (murine intestinal cells): 11.2 nM

KPYIL [Peptide 36004, K PYIL]
EC50 (murine intestinal cells): 7.71 nM

KSDKPYIL [Peptide 36044, K SDKPYIL]
EC50 (murine intestinal cells): 10.7 nM
Stability in intestine (activity remaining) [1]: 6.6%
Stability in serum (activity remaining) [2]: 0.0527

LDKPYIL [Peptide 36025, L DKPYIL]
EC50 (murine intestinal cells): 6.41 nM

LKPYIL [Peptide 35985, L KPYIL]
EC50 (murine intestinal cells): 0.33 nM

LPYIL [Peptide 36005, L PYIL]
EC50 (murine intestinal cells): 41 nM

LSDKPYIL [Peptide 36045, L SDKPYIL]
EC50 (murine intestinal cells): 8.06 nM
Stability in intestine (activity remaining) [1]: 7.9%
Stability in serum (activity remaining) [2]: 0.0917

MDKPYIL [Peptide 36026, M DKPYIL]
EC50 (murine intestinal cells): 6.08 nM

MKPYIL [Peptide 35986, M KPYIL]
EC50 (murine intestinal cells): 0.388 nM

MPYIL [Peptide 36006, M PYIL]
EC50 (murine intestinal cells): 16.2 nM

MSDKPYIL [Peptide 36046, M SDKPYIL]
EC50 (murine intestinal cells): 4.88 nM
Stability in intestine (activity remaining) [1]: 3.8%
Stability in serum (activity remaining) [2]: 0.0762

NDKPYIL [Peptide 36027, N DKPYIL]
EC50 (murine intestinal cells): 5.92 nM

NKPYIL [Peptide 35987, N KPYIL]
EC50 (murine intestinal cells): 0.5 nM

NPYIL [Peptide 36007, N PYIL]
EC50 (murine intestinal cells): 39.3 nM

NSDKPYIL [Peptide 36047, N SDKPYIL]
EC50 (murine intestinal cells): 4.41 nM
Stability in intestine (activity remaining) [1]: 3.9%
Stability in serum (activity remaining) [2]: 0.0872

PDKPYIL [Peptide 36028, P DKPYIL]
EC50 (murine intestinal cells): 4.67 nM

PKPYIL [Peptide 35988, P KPYIL]
EC50 (murine intestinal cells): 0.232 nM

PPYIL [Peptide 36008, P PYIL]
EC50 (murine intestinal cells): 9.61 nM

PSDKPYIL [Peptide 36048, P SDKPYIL]
EC50 (murine intestinal cells): 4.14 nM
Stability in intestine (activity remaining) [1]: 4.6%
Stability in serum (activity remaining) [2]: 0.0772

QDKPYIL [Peptide 36029, Q DKPYIL]
EC50 (murine intestinal cells): 4.97 nM

QKPYIL [Peptide 35989, Q KPYIL]
EC50 (murine intestinal cells): 0.378 nM

QPYIL [Peptide 36009, Q PYIL]
EC50 (murine intestinal cells): 20.5 nM

QSDKPYIL [Peptide 36049, Q SDKPYIL]
EC50 (murine intestinal cells): 4.01 nM
Stability in intestine (activity remaining) [1]: 8.8%
Stability in serum (activity remaining) [2]: 0.0742

RDKPYIL [Peptide 36030, R DKPYIL]
EC50 (murine intestinal cells): 4.68 nM

RSDKPYIL [Peptide 36050, R SDKPYIL]
EC50 (murine intestinal cells): 4.01 nM
Stability in intestine (activity remaining) [1]: 2.6%
Stability in serum (activity remaining) [2]: 0.0735

SDKPYIL [Peptide 36031, S DKPYIL]
EC50 (murine intestinal cells): 5 nM

SKPYIL [Peptide 35991, S KPYIL]
EC50 (murine intestinal cells): 1.15 nM

SPYIL [Peptide 36011, S PYIL]
EC50 (murine intestinal cells): 22.5 nM

SSDKPYIL [Peptide 36051, S SDKPYIL]
EC50 (murine intestinal cells): 4.27 nM
Stability in intestine (activity remaining) [1]: 19.5%
Stability in serum (activity remaining) [2]: 0.0609

TDKPYIL [Peptide 36032, T DKPYIL]
EC50 (murine intestinal cells): 5.61 nM

TKPYIL [Peptide 35992, T KPYIL]
EC50 (murine intestinal cells): 1.16 nM

TPYIL [Peptide 36012, T PYIL]
EC50 (murine intestinal cells): 43.6 nM

TSDKPYIL [Peptide 36052, T SDKPYIL]
EC50 (murine intestinal cells): 5.63 nM
Stability in intestine (activity remaining) [1]: 8.4%
Stability in serum (activity remaining) [2]: 0.0535

VDKPYIL [Peptide 36033, V DKPYIL]
EC50 (murine intestinal cells): 4.94 nM

VKPYIL [Peptide 35993, V KPYIL]
EC50 (murine intestinal cells): 1.17 nM

VPYIL [Peptide 36013, V PYIL]
EC50 (murine intestinal cells): 37.8 nM

VSDKPYIL [Peptide 36053, V SDKPYIL]
EC50 (murine intestinal cells): 5.15 nM
Stability in intestine (activity remaining) [1]: 5.6%
Stability in serum (activity remaining) [2]: 0.0488

WDKPYIL [Peptide 36034, W DKPYIL]
EC50 (murine intestinal cells): 14.1 nM

WKPYIL [Peptide 35994, W KPYIL]
EC50 (murine intestinal cells): 5.58 nM

YDKPYIL [Peptide 36035, Y DKPYIL]
EC50 (murine intestinal cells): 6.83 nM

YKPYIL [Peptide 35995, Y KPYIL]
EC50 (murine intestinal cells): 3.34 nM

YPYIL [Peptide 36015, Y PYIL]
EC50 (murine intestinal cells): 140 nM
